For 24 compounds, IC50 results are on record in patent publication US20250346602A1, “LACTAM SUBSTITUTED IMIDAZOPYRIDAZINE IL-17A MODULATORS AND USES THEREOF” (DICE ALPHA, INC., priority 2022, published 2025).

In the assay the target is T1, IL-17A/A (Homo sapiens, UniProt Q16552).
T1 construct: purchased Genscript Z03228
T1 sequence (Q16552 24-155): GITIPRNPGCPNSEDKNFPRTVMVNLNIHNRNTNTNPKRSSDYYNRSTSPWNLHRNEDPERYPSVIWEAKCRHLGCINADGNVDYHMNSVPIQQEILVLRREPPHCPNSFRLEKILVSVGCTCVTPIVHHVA
Put plainly: IL-17A/A HEK-Blue cell assay. Format: cell-based. The conditions noted are these: HEK-Blue IL-17A reporter cell line (HEK 293), IL-17A/A stimulation, 20 hours incubation, SEAP read at A630. Here is the method: The HEK-Blue IL-17A reporter cell line (Fisher #NC1408637) was used for cell-based IL-17A/A inhibition assays. Cells were grown and prepared for assays according to the manufacturer's instructions. This cell line consists of HEK 293 cells that were designed to expressed IL-17RA, IL-17RC, and the ActI adapter molecule, the combination of which, when stimulated by IL-17A/A activates a NFκB promoter and drives expression of a recombinant Secreted Alkaline Phosphatase (SEAP) gene protein. Media from the cells is then added to a development reagent (Quanti-Blue Substrate, Fisher #NC9711613), and read at A630.
Compounds were titrated in DMSO, with a top final compound concentration of 10 uM, 1 uM, or 0.3 uM, and added to the cells immediately before adding IL-17A/A (Genscript #Z03228). The cells, compound, and IL-17A/A were then incubated for 20 hours before media was removed for SEAP analysis. The resulting inhibition curve was then analyzed using Graphpad Prism 7.0, and IC50 values were determined using a 4-parameter nonlinear fit. DMSO was added to a universal final concentration of 0.1% to optimize background.

Where only a bound is given, the exact number is not on record here.

The term IC50 denotes the concentration needed to halve the response being measured. As to `CCn1nccc1C(=O)N[C@H](c1cn2nc(CC3C[C@@H](C(F)(F)F)CNC3=O)c(C(F)(F)F)cc2n1)[C@H]1CC[C@H](C)CC1` (single isomer, unassigned) [Compound 78], the IC50 is 100 to 1000 nM. Take `CCn1nccc1C(=O)N[C@H](c1cn2nc(CC3C[C@@H](C(F)(F)F)CNC3=O)c(C)cc2n1)C1CCC(F)(F)CC1` (single isomer, unassigned) [Compound 83]: the IC50 is 100 to 1000 nM. For `CCn1nccc1C(=O)N[C@H](c1cn2nc(CC3C[C@@H](C(F)(F)F)CNC3=O)c(N(C)C3CC3)cc2n1)C1CCC(F)(F)CC1` (single isomer, unassigned) [Compound 91] the value was under 100 nM; for `CCn1nccc1C(=O)N[C@H](c1cn2nc(CC3C(=O)NCCC3C)ccc2n1)[C@H]1CC[C@H](C)CC1` (single isomer, unassigned) [Compound 52], over 1000 nM.

Take `O=C(N[C@H](c1cn2nc(CC3C[C@@H](C(F)(F)F)CNC3=O)ccc2n1)C1CCC(F)(F)CC1)c1conc1C(F)(F)C1CC1` (stereo partly drawn) [Compound 125, 3-(cyclopropyldifluoromethyl)-N-((1S)-(4,4-difluorocyclohexyl)(6-(((5R)-2-oxo-5-(trifluoromethyl)piperidin-3-yl)methyl)imidazo[1,2-b]pyridazin-2-yl)methyl)isoxazole-4-carboxamide]: the half-maximal inhibitory concentration (IC50) was in the range of 100 to 1000 nM. Turning to `CC(C)n1nccc1C(=O)N[C@H](c1cn2nc(CC3C[C@@H](C(F)(F)F)CNC3=O)ccc2n1)[C@@H]1CCCC(F)(F)C1` (stereo partly drawn) [Compound 149, N-((1S)—((R)-3,3-difluorocyclohexyl)(6-(((5R)-2-oxo-5-(trifluoromethyl)piperidin-3-yl)methyl)imidazo[1,2-b]pyridazin-2-yl)methyl)-1-isopropyl-1H-pyrazole-5-carboxamide], the IC50 is under 100 nM. The value for `CCn1nccc1C(=O)N[C@H](c1cn2nc(CC3C[C@@H](C(F)(F)F)CNC3=O)c(COC)cc2n1)C1CCC(F)(F)CC1` (stereo partly drawn) [Compound 84, N-((1S)-(4,4-difluorocyclohexyl)(7-(methoxymethyl)-6-(((5R)-2-oxo-5-(trifluoromethyl)piperidin-3-yl)methyl)imidazo[1,2-b]pyridazin-2-yl)methyl)-1-ethyl-1H-pyrazole-5-carboxamide] was 100 to 1000 nM.

With `CCn1ncnc1C(=O)N[C@H](c1cn2nc(CC3C[C@@H](C(F)(F)F)CNC3=O)ccc2n1)[C@H]1CC[C@H](C)CC1` (stereo partly drawn) [Compound 166, N-((1S)-((1R.4S)-4-methylcyclohexyl)(6-(((5R)-2-oxo-5-(trifluoromethyl)piperidin-3-yl)methyl)imidazo[1,2-b]pyridazin-2-yl)methyl)-1-ethyl-1H-1,2,4-triazole-5-carboxamide], the 50% inhibitory concentration (IC50) is over 1000 nM. `CCn1nccc1C(=O)N[C@H](c1cn2ncc(CC3C[C@@H](C(F)(F)F)NC3=O)cc2n1)C(C1CC1)C1CC1` (single isomer, unassigned) [Compound 201]: the half-maximal inhibitory concentration (IC50) was over 1000 nM. Turning to `CC(C)n1nncc1C(=O)N[C@H](c1cn2nc(CC3C[C@@H](C(F)(F)F)CNC3=O)ccc2n1)C1CCC(F)(F)CC1` (stereo partly drawn) [Compound 107, N-((1S)-(4,4-difluorocyclohexyl)(6-(((5R)-2-oxo-5-(trifluoromethyl)piperidin-3-yl)methyl)imidazo[1,2-b]pyridazin-2-yl)methyl)-1-isopropyl-1H-1,2,3-triazole-5-carboxamide], the IC50 is 100 to 1000 nM. In the case of `CCn1nccc1C(=O)N[C@H](c1cn2nc(CC3C[C@@H](C(F)(F)F)CNC3=O)c(N(C)CC(F)(F)F)cc2n1)C1CCC(F)(F)CC1` (single isomer, unassigned) [Compound 181], the IC50 is under 100 nM.

For `CCn1nccc1C(=O)NC(c1cn2nc(CC3CC(F)(F)CNC3=O)ccc2n1)C1CCC(C)CC1` (single isomer, unassigned) [Compound 26], the IC50 lay within 100 to 1000 nM. For `CCn1nccc1C(=O)N[C@H](c1cn2nc(CC3C(=O)NCCC3C)ccc2n1)[C@H]1CC[C@H](C)CC1` (single isomer, unassigned) [Compound 54], the IC50 lay in the range of 100 to 1000 nM. As to `CCn1nccc1C(=O)NC(c1cn2nc(CC3CC(C)CNC3=O)ccc2n1)C1CCC(C)CC1` (single isomer, unassigned) [Compound 50], the IC50 was over 1000 nM. The value for `O=C(N[C@H](c1cn2nc(CC3C[C@@H](C(F)(F)F)CNC3=O)ccc2n1)[C@@H]1CCCC(F)(F)C1)c1nonc1C1CC1` (stereo partly drawn) [Compound 145, 4-cyclopropyl-N—((S)-((R)-3,3-difluorocyclohexyl)(6-(((5R)-2-oxo-5-(trifluoromethyl)piperidin-3-yl)methyl)imidazo[1,2-b]pyridazin-2-yl)methyl)-1,2,5-oxadiazole-3-carboxamide] was under 100 nM; that for `Cc1nonc1C(=O)N[C@H](c1cn2nc(C[C@H]3CCCNC3=O)ccc2n1)C1CCC(F)(F)CC1` [Compound 38, N—((S)-(4,4-difluorocyclohexyl)(6-(((R)-2-oxopiperidin-3-yl)methyl)imidazo[1,2-b]pyridazin-2-yl)methyl)-4-methyl-1,2,5-oxadiazole-3-carboxamide] was over 1000 nM; that for `Cc1nonc1C(=O)N[C@H](c1cn2nc(C[C@H]3CCCNC3=O)ccc2n1)C(C1CC1)C1CC1` [Compound 36, N—((S)-2,2-dicyclopropyl-1-(6-(((R)-2-oxopiperidin-3-yl)methyl)imidazo[1,2-b]pyridazin-2-yl)ethyl)-4-methyl-1,2,5-oxadiazole-3-carboxamide] was over 1000 nM.

Regarding `CCn1nccc1C(=O)N[C@H](c1cn2nc(CC3C[C@@H](C(F)(F)F)CNC3=O)c(N(C)C3CCOCC3)cc2n1)C1CCC(F)(F)CC1` (single isomer, unassigned) [Compound 94], the IC50 was under 100 nM. As to `CCn1nccc1C(=O)N[C@H](c1cn2nc(CC3C[C@@H](C(F)(F)F)NC3=O)ccc2n1)C1CCC(F)(F)CC1` (stereo partly drawn) [Compound 7, N-((1S)-(4,4-difluorocyclohexyl)(6-(((5S)-2-oxo-5-(trifluoromethyl)pyrrolidin-3-yl)methyl)imidazo[1,2-b]pyridazin-2-yl)methyl)-1-ethyl-1H-pyrazole-5-carboxamide], the IC50 lay in the range of 100 to 1000 nM. The value for `CCn1nccc1C(=O)N[C@H](c1cn2nc(C[C@H]3CCCNC3=O)ccc2n1)C(C1CC1)C1CC1` (single isomer, unassigned) [Compound 34] was over 1000 nM. Regarding `CCn1nccc1C(=O)N[C@H](c1cn2nc(CC3CC(F)(F)CNC3=O)c(C)cc2n1)C1CCC(F)(F)CC1` (single isomer, unassigned) [Compound 76], the IC50 is 100 to 1000 nM.

In the case of `CCn1nccc1C(=O)N[C@H](c1cn2nc(CC3C[C@@H](C(F)(F)F)CNC3=O)ccc2n1)C1CCC(F)(F)CC1` (stereo partly drawn) [Compound 95, N-((1S)-(4,4-difluorocyclohexyl)(6-(((5R)-2-oxo-5-(trifluoromethyl)piperidin-3-yl)methyl)imidazo[1,2-b]pyridazin-2-yl)methyl)-1-ethyl-1H-pyrazole-5-carboxamide], the IC50 is 100 to 1000 nM. Consider `CCn1nccc1C(=O)N[C@H](c1cn2nc(CC3C[C@@H](C(F)(F)F)CNC3=O)c(Cl)cc2n1)C1CCC(F)(F)CC1` (single isomer, unassigned) [Compound 80], for which the IC50 fell in the range of 100 to 1000 nM. The value for `CCn1nccc1C(=O)N[C@H](c1cn2nc(CC3CC(F)(F)CNC3=O)ccc2n1)C1CCC(F)(F)CC1` (single isomer, unassigned) [Compound 24] was over 1000 nM.
